Results: patent US9833497B2, “Human originated EGF domain proteins and use of the same” (CHENGDU SOURCEBIO LIMITED-LIABILITY COMPANY, priority 2013, dated 2017)

Key:
Assay type in all cases: cell-based
Pseudomonas aeruginosa = experiment: MIC against Gram-negative bacteria: Pseudomonas aeruginosa
Procedure, shortened: (§1)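 Broth microdilution, LB medium, final inoculum 5×10^5 CFU/mL from McFarland 0.5 cultures. Recombinant human EGF domain proteins tested in two-fold steps, n=3. MIC: lowest concentration, no growth.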

Citrobacter diversus = experiment: MIC against Gram-negative bacteria: Citrobacter diversus
Procedure, shortened: as §1

Proteus vulgaris = experiment: MIC against Gram-negative bacteria: Proteus vulgaris
Procedure, shortened: as §1

Enterobacter cloacae = experiment: MIC against Gram-negative bacteria: Enterobacter cloacae
Procedure, shortened: as §1

Moraxella catarrhalis = experiment: MIC against Gram-negative bacteria: Moraxella catarrhalis
Procedure, shortened: as §1

E. coli DH5α = experiment: Antibacterial activity: MIC and growth curve against E. coli DH5α in 96-well plate; details: minimal inhibitory concentration against E. coli DH5α; 96-well plate, 5×10^5 CFU/mL, 37° C., judged after 8 h
Procedure, shortened: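 Log-phase bacteria (OD600 ~0.5) resuspended in LB at 5×10^5 CFU/mL, exposed to recombinant protein at 50, 25, 12.5 μg/mL final in triplicate, 37 °C shaking at 175 rpm. OD600 read every 30 min; MIC is lowest concentration showing no growth.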

Aeromonas hydrophila = experiment: MIC against Gram-negative bacteria: Aeromonas hydrophila
Procedure, shortened: as §1

Serratia marcescens = experiment: MIC against Gram-negative bacteria: Serratia marcescens
Procedure, shortened: as §1

Proteus mirabilis = experiment: MIC against Gram-negative bacteria: Proteus mirabilis
Procedure, shortened: as §1

Klebsiella pneumonia = experiment: MIC against Gram-negative bacteria: Klebsiella pneumonia
Procedure, shortened: as §1

E. coli BL21 = experiment: MIC against Gram-negative bacteria: E. coli BL21; details: for MIC (μg/mL) E. coli BL21 / MIC: E. coli BL21
Procedure, shortened: as §1

[1] = P. aeruginosa, 10 h cultivation at 37° C., 5×10^5 CFU/mL
[2] = C. diversus, 10 h cultivation at 37° C., 5×10^5 CFU/mL
[3] = P. vulgaris, 10 h cultivation at 37° C., 5×10^5 CFU/mL
[4] = E. cloacae, 10 h cultivation at 37° C., 5×10^5 CFU/mL
[5] = M. catarrhalis, 10 h cultivation at 37° C., 5×10^5 CFU/mL
[6] = A. hydrophila, 10 h cultivation at 37° C., 5×10^5 CFU/mL
[7] = S. marcescens, 10 h cultivation at 37° C., 5×10^5 CFU/mL
[8] = P. mirabilis, 10 h cultivation at 37° C., 5×10^5 CFU/mL
[9] = K. pneumonia, 10 h cultivation at 37° C., 5×10^5 CFU/mL
[10] = 10 h cultivation at 37° C., 5×10^5 CFU/mL
[11] = 96-well plate, 5×10^5 CFU/mL, 37° C., 10 h

PRT170 (CTHHKPCKNGATCTNTGQGSYTCSCRPGYTGATC; listed as Homo sapiens)
12.5 µg/mL: MIC (μg/mL) P. aeruginosa (Pseudomonas aeruginosa; [1]) | MIC (μg/mL) C. diversus (Citrobacter diversus; [2]) | MIC (μg/mL) S. marcescens (Serratia marcescens; [7])
25 µg/mL: MIC (μg/mL) P. vulgaris (Proteus vulgaris; [3]) | MIC (μg/mL) M. catarrhalis (Moraxella catarrhalis; [5]) | MIC (μg/mL) A. hydrophila (Aeromonas hydrophila; [6]) | MIC (μg/mL) K. pneumonia (Klebsiella pneumonia; [9]) | MIC (μg/mL) E. coli BL21 (E. coli BL21; [10])
50 µg/mL: MIC (μg/mL) E. cloacae (Enterobacter cloacae; [4]) | MIC (E. coli DH5α) | MIC (μg/mL) P. mirabilis (Proteus mirabilis; [8])

PRT994 (DHNECLSQPCHPGSTCLDLLATFHCLCPPGLEGQLCE; listed as Homo sapiens)
12.5 µg/mL: MIC (Moraxella catarrhalis; M. catarrhalis, 10 h cultivation at 37° C.) | MIC (Aeromonas hydrophila; A. hydrophila, 10 h cultivation at 37° C.) | MIC (E. coli BL21; 10 h cultivation at 37° C.)
50 µg/mL: MIC (Citrobacter diversus; C. diversus, 10 h cultivation at 37° C.) | MIC (Proteus vulgaris; P. vulgaris, 10 h cultivation at 37° C.) | MIC (E. coli DH5α) | MIC (Klebsiella pneumonia; K. pneumonia, 10 h cultivation at 37° C.)
25 µg/mL: MIC (Pseudomonas aeruginosa; P. aeruginosa, 10 h cultivation at 37° C.) | MIC (Enterobacter cloacae; E. cloacae, 10 h cultivation at 37° C.) | MIC (Serratia marcescens; S. marcescens, 10 h cultivation at 37° C.) | MIC (Proteus mirabilis; P. mirabilis, 10 h cultivation at 37° C.)

PRT398 (DDNECHAQPDLCVNGRCVNTAGSFRCDCDEGFQPSPTLTECH; listed as Homo sapiens)
12.5 µg/mL: MIC (Proteus vulgaris; [3]) | MIC (Moraxella catarrhalis; [5]) | MIC (Aeromonas hydrophila; [6]) | MIC (Proteus mirabilis; [8]) | MIC (Klebsiella pneumonia; [9]) | MIC (E. coli BL21; [10])
100 µg/mL: MIC (Serratia marcescens; [7])
50 µg/mL: MIC (Pseudomonas aeruginosa; [1]) | MIC (Citrobacter diversus; [2]) | MIC (Enterobacter cloacae; [4]) | MIC (E. coli DH5α)

PRT635 (DINECLEDKSVCQRGDCINTAGSYDCTCPDGFQLDDNKTCQ; listed as Homo sapiens)
25 µg/mL: MIC A. hydrophila (Aeromonas hydrophila; [11]) | MIC S. marcescens (Serratia marcescens; [11]) | MIC P. mirabilis (Proteus mirabilis; [11]) | MIC K. pneumonia (Klebsiella pneumonia; [11]) | MIC E. coli BL21 (E. coli BL21; [11])
12.5 µg/mL: MIC P. aeruginosa (Pseudomonas aeruginosa; [11]) | MIC C. diversus (Citrobacter diversus; [11]) | MIC P. vulgaris (Proteus vulgaris; [11]) | MIC E. cloacae (Enterobacter cloacae; [11]) | MIC M. catarrhalis (Moraxella catarrhalis; [11]) | MIC (E. coli DH5α)

PRT64 (PCSSSPCRGGATCALGPHGKNYTCRCPQGYQLDSSQLDCV; listed as Homo sapiens)
25 µg/mL: MIC (μg/mL) P. vulgaris (Proteus vulgaris; Proteus vulgaris, 96-well plate, 5×10^5 CFU/mL, 37° C., 10 h) | MIC (μg/mL) M. catarrhalis (Moraxella catarrhalis; Moraxella catarrhalis, 96-well plate, 5×10^5 CFU/mL, 37° C., 10 h) | MIC (μg/mL) A. hydrophila (Aeromonas hydrophila; Aeromonas hydrophila, 96-well plate, 5×10^5 CFU/mL, 37° C., 10 h) | MIC (μg/mL) S. marcescens (Serratia marcescens; Serratia marcescens, 96-well plate, 5×10^5 CFU/mL, 37° C., 10 h) | MIC (μg/mL) P. mirabilis (Proteus mirabilis; Proteus mirabilis, 96-well plate, 5×10^5 CFU/mL, 37° C., 10 h) | MIC (μg/mL) K. pneumonia (Klebsiella pneumonia; Klebsiella pneumonia, 96-well plate, 5×10^5 CFU/mL, 37° C., 10 h)
50 µg/mL: MIC (μg/mL) P. aeruginosa (Pseudomonas aeruginosa; Pseudomonas aeruginosa, 96-well plate, 5×10^5 CFU/mL, 37° C., 10 h) | MIC (μg/mL) C. diversus (Citrobacter diversus; Citrobacter diversus, 96-well plate, 5×10^5 CFU/mL, 37° C., 10 h)
12.5 µg/mL: MIC (μg/mL) E. cloacae (Enterobacter cloacae; Enterobacter cloacae, 96-well plate, 5×10^5 CFU/mL, 37° C., 10 h) | MIC (E. coli DH5α) | MIC (μg/mL) E. coli BL21 (E. coli BL21; [11])

PRT767 (AIDLCAEGTHGCEHHCVNSPGSYFCHCQVGFVLQQDQ; listed as Homo sapiens)
12.5 µg/mL: MIC (μg/mL) P. vulgaris (Proteus vulgaris; [3]) | MIC (μg/mL) A. hydrophila (Aeromonas hydrophila; [6]) | MIC (μg/mL) K. pneumonia (Klebsiella pneumonia; [9])
25 µg/mL: MIC (μg/mL) P. aeruginosa (Pseudomonas aeruginosa; [1]) | MIC (μg/mL) C. diversus (Citrobacter diversus; [2]) | MIC (E. coli DH5α) | MIC (μg/mL) P. mirabilis (Proteus mirabilis; [8])
50 µg/mL: MIC (μg/mL) E. cloacae (Enterobacter cloacae; [4]) | MIC (μg/mL) M. catarrhalis (Moraxella catarrhalis; [5]) | MIC (μg/mL) S. marcescens (Serratia marcescens; [7]) | MIC (μg/mL) E. coli BL21 (E. coli BL21; [10])

PRT456 (DIDECADSEACGEARCKNLPGSYSCLCDEGFAYSSQEKACR; listed as Homo sapiens)
12.5 µg/mL: MIC against P. vulgaris (Proteus vulgaris; [11]) | MIC against E. cloacae (Enterobacter cloacae; [11]) | MIC against M. catarrhalis (Moraxella catarrhalis; [11]) | MIC against A. hydrophila (Aeromonas hydrophila; [11]) | MIC against K. pneumonia (Klebsiella pneumonia; [11]) | MIC against E. coli BL21 (E. coli BL21; [11])
50 µg/mL: MIC against P. aeruginosa (Pseudomonas aeruginosa; [11]) | MIC against C. diversus (Citrobacter diversus; [11]) | MIC against P. mirabilis (Proteus mirabilis; [11])
25 µg/mL: MIC (E. coli DH5α) | MIC against S. marcescens (Serratia marcescens; [11])
